{
  "source": "patent US11208412B2",
  "about": "(DAEGU-GYEONGBUK MEDICAL INNOVATION FOUNDATION, priority 2017, dated 2021)",
  "key": {"[1]": {"molecular_target": "T1, kinases of the scanMAX Kinase assay panel (Homo sapiens, UniProt O14965)", "T1 construct": "purchased DiscoverX Co. (contract measurement) scanMAX Kinase assay panel", "T1 sequence (O14965 1-403)": "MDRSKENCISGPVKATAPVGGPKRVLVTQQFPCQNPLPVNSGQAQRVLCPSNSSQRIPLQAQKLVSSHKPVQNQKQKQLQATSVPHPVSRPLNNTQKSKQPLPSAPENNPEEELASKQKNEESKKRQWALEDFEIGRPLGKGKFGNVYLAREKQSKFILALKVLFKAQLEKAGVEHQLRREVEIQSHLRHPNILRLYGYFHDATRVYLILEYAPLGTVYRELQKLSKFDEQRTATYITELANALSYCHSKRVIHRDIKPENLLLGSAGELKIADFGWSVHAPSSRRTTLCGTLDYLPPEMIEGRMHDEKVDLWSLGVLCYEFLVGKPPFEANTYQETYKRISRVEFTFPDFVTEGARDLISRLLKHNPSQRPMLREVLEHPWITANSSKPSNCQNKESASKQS", "experiment": "Kinase selectivity, DiscoverX scanMAX Kinase assay panel (% control)", "type": "binding", "settings": "AURKA; 1 uM", "summary_of_the_method": "(§1)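 Single-point screen, 1 uM cpd in DMSO. % ctrl = (cpd − pos ctrl)/(neg ctrl − pos ctrl)×100; pos ctrl = 0%, DMSO neg ctrl = 100%. Hit cutoff <35%.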"}, "[2]": {"molecular_target": "T2, kinases of the scanMAX Kinase assay panel (Homo sapiens, UniProt Q8IWQ3)", "T2 construct": "purchased DiscoverX Co. (contract measurement) scanMAX Kinase assay panel", "T2 sequence (Q8IWQ3 1-736)": "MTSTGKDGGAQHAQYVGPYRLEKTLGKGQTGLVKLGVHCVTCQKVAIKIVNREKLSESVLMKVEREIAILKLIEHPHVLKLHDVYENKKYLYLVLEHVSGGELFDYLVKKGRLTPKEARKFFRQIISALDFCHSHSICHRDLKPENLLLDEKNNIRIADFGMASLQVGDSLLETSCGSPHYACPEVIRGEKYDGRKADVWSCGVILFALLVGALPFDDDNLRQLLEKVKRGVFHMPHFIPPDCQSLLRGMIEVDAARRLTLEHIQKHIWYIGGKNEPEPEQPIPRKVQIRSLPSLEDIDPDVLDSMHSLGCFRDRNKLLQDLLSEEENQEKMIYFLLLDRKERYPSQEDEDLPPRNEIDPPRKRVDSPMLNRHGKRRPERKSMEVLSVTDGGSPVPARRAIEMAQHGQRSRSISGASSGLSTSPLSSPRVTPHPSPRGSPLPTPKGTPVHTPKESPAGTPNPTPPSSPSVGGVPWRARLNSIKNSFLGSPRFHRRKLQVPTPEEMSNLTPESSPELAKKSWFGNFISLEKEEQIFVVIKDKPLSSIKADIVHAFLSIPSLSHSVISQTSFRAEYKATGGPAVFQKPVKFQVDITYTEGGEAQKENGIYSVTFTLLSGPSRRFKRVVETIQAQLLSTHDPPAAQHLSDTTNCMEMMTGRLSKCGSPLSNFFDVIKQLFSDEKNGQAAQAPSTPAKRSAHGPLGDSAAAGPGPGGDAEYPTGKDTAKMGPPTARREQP", "experiment": "Kinase selectivity, DiscoverX scanMAX Kinase assay panel (% control)", "type": "binding", "settings": "BRSK2; 1 uM", "summary_of_the_method": "as §1"}},
  "data": [
    {"compound": "CC1(Nc2nc(Nc3cnn([C@H]4CCN(C5COC5)C[C@@H]4F)c3Cl)nc3[nH]cc(C#N)c23)CC1", "note": "[Example 52, 2-((5-chloro-1-((3S,4S)-3-fluoro-1-(oxetane-3-yl)piperidine-4-yl)-1H-pyrazole-4-yl)amino)((1-methylcyclopropyl)amino)-7H-pyrrolo[2,3-d]pyrimidine-5-carbonitrile]", "values": [
      {"measurement": "remaining binding at 1 µM", "setting": "[1]", "result": 0.85, "unit": "%"},
      {"measurement": "remaining binding at 1 µM", "setting": "[2]", "result": 70, "unit": "%"}
    ]},
    {"compound": "CNc1nc(Nc2ccc(C(=O)N3CCOCC3)cc2OC)nc2[nH]cc(C#N)c12", "note": "[Example 1, 2-((2-methoxy-4-(morpholine-4-carbonyl)phenyl)amino)-4-(methylamino)-7H-pyrrolo[2,3-d]pyrimidine-5-carbonitrile]", "values": [
      {"measurement": "remaining binding at 1 µM", "setting": "[1]", "result": 99, "unit": "%"},
      {"measurement": "remaining binding at 1 µM", "setting": "[2]", "result": 89, "unit": "%"}
    ]},
    {"compound": "CCNc1nc(Nc2ccc(C(=O)N3CCC(N4CCOCC4)CC3)cc2OC)nc2[nH]cc(C(F)(F)F)c12", "note": "[Example 104, (4-((4-(ethylamino)-5-(trifluoromethyl)-7H-pyrrolo[2,3-d]pyrimidine-2-yl)amino)-3-methoxyphenyl)(4-morpholinopiperidine-1-yl)methanone]", "values": [
      {"measurement": "remaining binding at 1 µM", "setting": "[1]", "result": 87, "unit": "%"},
      {"measurement": "remaining binding at 1 µM", "setting": "[2]", "result": 100, "unit": "%"}
    ]}
  ]
}
